Experimental findings from PubChem BioAssay (NCI) are described below.

Test systems include EKVX NSCLC; HCC-2998 colon; HT29 colon; MCF7 breast; RXF 393 renal; SK-OV-3 ovarian; DU-145 prostate; M14 melanoma; PC-3 prostate; HS 578T breast.
What all share (assay): inhibition of tumour cell growth, NCI panel, 48 h

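Briefly, cells in 96-well plates were exposed to five compound concentrations for 48 h, and endpoints were estimated by linear interpolation. TGI: concentration producing complete growth inhibition.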

`CC(C)NC(=O)OCc1c(CO)c2c(n1C)-c1ccccc1CC2`: the TGI in the assay on EKVX NSCLC is greater than 100 µM; in the assay with HCC-2998 colon, 57.4 µM; in the assay with HT29 colon it was 54.5 µM; in the assay with MCF7 breast, greater than 100 µM; with RXF 393 renal, 49.6 µM; in the assay on SK-OV-3 ovarian, greater than 100 µM.

Consider `Cc1c2c(c(O)c3c(O)cccc13)C(=O)C1(O)C(O)=C(C(=O)NCNc3ccc(C(N)=O)cn3)C(=O)C(N(C)C)C1C2` (centres undefined), for which the TGI in the assay with DU-145 prostate was 20 µM; in the assay on EKVX NSCLC, greater than 100 µM; in the assay on HCC-2998 colon, 8.66 µM; in the assay on HT29 colon, greater than 100 µM; with M14 melanoma, greater than 100 µM; in the assay on MCF7 breast it was greater than 100 µM. The TGI came to 30.7 µM in the assay with PC-3 prostate, 20.1 µM with RXF 393 renal and 8.78 µM with SK-OV-3 ovarian.

For the compound `COC(=O)c1ccc(N=NN(C)COc2ccc(Br)cc2)cc1`, the TGI in the assay on EKVX NSCLC is greater than 100 µM; in the assay on HCC-2998 colon, 87.7 µM; in the assay on HT29 colon, greater than 100 µM; in the assay with MCF7 breast, greater than 100 µM; with RXF 393 renal, greater than 100 µM; in the assay on SK-OV-3 ovarian, greater than 100 µM.

Turning to `Cc1cc(/C=C/c2cc[n+](C)c3ccccc23)c(O)c2ncccc12`, the TGI in the assay with EKVX NSCLC turned out to be 20 µM; with HCC-2998 colon, 14.5 µM; in the assay on HT29 colon, 14.6 µM; in the assay on M14 melanoma, 4.51 µM; with RXF 393 renal, 9.83 µM; in the assay with SK-OV-3 ovarian it was 13 µM.

For the compound `C=CCN(C(=O)OC(C)(C)C)[C@H](C)C(=O)N[C@@H](C)C(=O)OC`, the TGI with DU-145 prostate, in the assay on EKVX NSCLC, in the assay with HS 578T breast, with HT29 colon, in the assay on M14 melanoma and in the assay on MCF7 breast was greater than 100 µM in each case. In addition, the TGI in the assay with PC-3 prostate and with SK-OV-3 ovarian was greater than 100 µM each time.

Turning to `CCOc1ccc(N/C(=C(/C(Cl)=C(/Cl)N2CCCCC2)[N+](=O)[O-])n2nnc3ccccc32)cc1`, the TGI in the assay with DU-145 prostate amounted to 82.4 µM; in the assay on EKVX NSCLC, 36.9 µM; with HCC-2998 colon, 59.2 µM; in the assay on M14 melanoma, 38.2 µM; in the assay on MCF7 breast, 39.4 µM; in the assay with PC-3 prostate, 26.1 µM. For the same compound, the TGI in the assay on SK-OV-3 ovarian was found to be 82 µM.

Consider `CC(C)NC(=O)N(Nc1ccccc1)C(C)(C)C`, for which the TGI with EKVX NSCLC, in the assay with HCC-2998 colon, with HS 578T breast, in the assay with HT29 colon, in the assay on M14 melanoma and in the assay on MCF7 breast was greater than 100 µM throughout. The TGI with PC-3 prostate, with RXF 393 renal and in the assay with SK-OV-3 ovarian was greater than 100 µM each time.

Consider `CC(=O)NC1(c2cc3ccccc3s2)CCCCCC1`, for which the TGI with DU-145 prostate was greater than 100 µM; with EKVX NSCLC, 57.3 µM; with HCC-2998 colon, greater than 100 µM; in the assay with HT29 colon, greater than 100 µM; in the assay on M14 melanoma it was greater than 100 µM; in the assay on MCF7 breast, greater than 100 µM. The TGI with PC-3 prostate is 60.8 µM; in the assay with RXF 393 renal, 80.6 µM; with SK-OV-3 ovarian, greater than 100 µM.

On to `COC1CN(C)C(=Nc2cccc3ccccc23)S1` (centres undefined), for which the TGI in the assay with DU-145 prostate, in the assay on HCC-2998 colon, in the assay on HS 578T breast, in the assay on HT29 colon, in the assay on M14 melanoma and in the assay with MCF7 breast was greater than 10 µM throughout. Moreover, the TGI with PC-3 prostate and in the assay with SK-OV-3 ovarian was greater than 10 µM each time.

Regarding `CCCCCCCCCCCCCCCCCCNC(=S)/N=C\C1=C(O)c2ccccc2C1=O`, the TGI came out at 19.2 µM in the assay with DU-145 prostate; 28 µM with EKVX NSCLC; 6.4 µM with HCC-2998 colon; 35 µM in the assay on HS 578T breast; 25 µM with HT29 colon; 22 µM with M14 melanoma. Further, the figures for the TGI in the assay with MCF7 breast, in the assay with PC-3 prostate and with SK-OV-3 ovarian were 29.5 µM, 15.9 µM and 33.6 µM, respectively.

Take `COc1cc(-c2cc(=O)c3c(O)c(CC=C(C)C)c(O)cc3o2)ccc1O`: the TGI was greater than 50 µM in the assay on DU-145 prostate; 32.5 µM in the assay on EKVX NSCLC; greater than 50 µM in the assay with HS 578T breast; greater than 50 µM in the assay on HT29 colon; 39.7 µM in the assay on M14 melanoma; greater than 50 µM in the assay on MCF7 breast. The TGI in the assay with PC-3 prostate, in the assay with RXF 393 renal and in the assay with SK-OV-3 ovarian was greater than 50 µM each time.

Regarding `S=C1CCSc2c(ccc3ccccc23)N1`, the TGI in the assay on DU-145 prostate, in the assay on EKVX NSCLC, in the assay on HS 578T breast, in the assay on HT29 colon, in the assay on M14 melanoma and in the assay on MCF7 breast was greater than 100 µM throughout. The TGI in the assay with PC-3 prostate, in the assay on RXF 393 renal and with SK-OV-3 ovarian was greater than 100 µM each time.

As for `Cc1c(N2CCN(C)CC2)nc2ccc(Cl)cc2c1-c1ccccc1`, the TGI in the assay with EKVX NSCLC was 34.1 µM; in the assay on HCC-2998 colon, greater than 10 µM; in the assay with HT29 colon it was 27.7 µM; in the assay on M14 melanoma, 34.9 µM; in the assay on RXF 393 renal it was 42.3 µM; in the assay on SK-OV-3 ovarian, greater than 100 µM.

Turning to `COC(O)C(=O)c1ccc2c(c1)CC1(C2)Cc2cc3c(cc2C1=O)CCC3` (centres undefined), the TGI in the assay on DU-145 prostate amounted to 31.1 µM; with EKVX NSCLC, 45.7 µM; in the assay on HCC-2998 colon it was 38.6 µM; in the assay with HS 578T breast, 60.7 µM; with HT29 colon, 42.3 µM; with M14 melanoma it was 35.9 µM. The TGI in the assay with MCF7 breast worked out at 39.6 µM; with PC-3 prostate, 30.8 µM; with SK-OV-3 ovarian, 31.9 µM.

Consider `COC1C(O)C(n2ncc3c(SC)nc(SC)nc32)OC1C(O)CO` (centres undefined), for which the TGI in the assay with EKVX NSCLC, in the assay with HCC-2998 colon, with HT29 colon, in the assay on MCF7 breast, in the assay on RXF 393 renal and in the assay with SK-OV-3 ovarian was greater than 100 µM each time.

As to `CC(=O)Nc1ccc2c3c(cc(O)c2c1)N(C(=O)CCCCCCC(=O)N1CC(CCl)c2c1cc(O)c1cc(NC(C)=O)ccc21)CC3CCl` (centres undefined), the TGI in the assay with DU-145 prostate was less than 0.01 µM; in the assay on EKVX NSCLC, 0.475 µM; with HT29 colon it was greater than 100 µM; with M14 melanoma, 0.0177 µM; with MCF7 breast it was 0.0472 µM; in the assay with PC-3 prostate, 1.13 µM. In addition, the TGI in the assay with RXF 393 renal was found to be 0.0185 µM; in the assay on SK-OV-3 ovarian it was 12.4 µM.
